The target in the test is T1, human liver glycogen phosphorylase a (HLGPa) (Homo sapiens, UniProt P06737).
T1 construct: creating a full-length cDNA fused at the 5′ end to codons for methionine-glycine-alanine-histidine; 6xHis tag (leader Met-Gly-Ala-His6-Gly-Gly) (N); made in house; host or cells: E. coli (bacterial expression plasmid pTXK1007LTev)
T1 sequence (P06737 2-847 limits assumed): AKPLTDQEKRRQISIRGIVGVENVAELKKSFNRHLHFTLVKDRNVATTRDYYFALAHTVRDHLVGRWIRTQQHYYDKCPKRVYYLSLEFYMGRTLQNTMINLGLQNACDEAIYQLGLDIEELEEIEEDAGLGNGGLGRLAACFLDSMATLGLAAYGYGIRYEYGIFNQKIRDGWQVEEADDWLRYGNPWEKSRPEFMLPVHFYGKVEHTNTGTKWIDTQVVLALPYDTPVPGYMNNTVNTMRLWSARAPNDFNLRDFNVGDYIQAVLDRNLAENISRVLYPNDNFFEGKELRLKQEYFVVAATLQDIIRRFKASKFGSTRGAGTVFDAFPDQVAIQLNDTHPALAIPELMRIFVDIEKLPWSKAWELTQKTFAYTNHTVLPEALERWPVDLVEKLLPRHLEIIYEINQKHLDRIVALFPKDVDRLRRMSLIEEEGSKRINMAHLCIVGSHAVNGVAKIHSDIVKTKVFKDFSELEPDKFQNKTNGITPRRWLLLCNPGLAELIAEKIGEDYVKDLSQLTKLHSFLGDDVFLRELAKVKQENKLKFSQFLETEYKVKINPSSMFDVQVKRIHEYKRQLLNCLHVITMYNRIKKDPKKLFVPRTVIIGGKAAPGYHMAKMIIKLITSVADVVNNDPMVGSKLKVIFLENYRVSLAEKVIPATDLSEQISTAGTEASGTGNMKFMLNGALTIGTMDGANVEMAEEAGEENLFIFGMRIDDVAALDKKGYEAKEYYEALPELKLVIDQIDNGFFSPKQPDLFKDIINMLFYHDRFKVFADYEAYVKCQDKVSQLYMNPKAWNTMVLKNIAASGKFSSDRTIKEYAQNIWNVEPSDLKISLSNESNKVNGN
Kind of test: Human liver glycogen phosphorylase a enzymatic activity assay (coupled, fluorescent resorufin readout, with and without 10 mM glucose). Conditions: human liver glycogen phosphorylase a; table does not say whether with or without 10 mM glucose. Type of test: biochemical.

Structures are written as SMILES.

The term IC50 denotes the concentration at which inhibition is half-maximal. A low value points to inhibition by little substance.

`Cc1cc(C)c(NC(=O)Nc2cc3ccccc3cc2C(=O)NC2(C(=O)O)CCC(NCc3ccccc3)CC2)c(C)c1` (centres unmarked) [Example 294, 4-[(phenylmethyl)amino]-1-({[3-({[(2,4,6-trimethylphenyl)amino]carbonyl}amino)-2-naphthalenyl]carbonyl}amino)cyclohexanecarboxylic acid] yielded an IC50 of 2530 nM.

Consider `Cc1cc(C)c(NC(=O)Nc2cc3ccccc3cc2C(=O)NC2(C(=O)O)CCC(NCc3ccccc3)CC2)c(C)c1` (centres unmarked) [Example 295, 4-[(phenylmethyl)amino]-1-({[3-({[(2,4,6-trimethylphenyl)amino]carbonyl}amino)-2-naphthalenyl]carbonyl}amino)cyclohexanecarboxylic acid], for which the IC50 worked out at 5560 nM.

For the compound `Cc1cc(C)c(NC(=O)Nc2cc3ccccc3cc2C(=O)NC2(C(=O)O)CCC(=NO)CC2)c(C)c1` (centres unmarked) [Example 296, 4-(hydroxyimino)-1-({[3-({[(2,4,6-trimethylphenyl)amino]carbonyl}amino)-2-naphthalenyl]carbonyl}amino)cyclohexanecarboxylic acid], half-maximal inhibition (IC50) was put at 540 nM.

`Cc1cc(C)c(NC(=O)Nc2nc3ccccc3cc2C(=O)N[C@H](C(=O)O)C2CCCCC2)c(C)c1` [Example 297, (2S)-cyclohexyl({[2-({[(2,4,6-trimethylphenyl)amino]carbonyl}amino)-3-quinolinyl]carbonyl}amino)ethanoic acid] yielded an IC50 of 15600 nM.

With `O=C(Nc1cc2ccccc2nc1C(=O)N[C@H](C(=O)O)C1CCCCC1)Nc1c(Cl)cccc1Cl` [Example 298, (2S)-Cyclohexyl({[3-({[(2,6-dichlorophenyl)amino]carbonyl}amino)-2-quinolinyl]carbonyl}amino)ethanoic acid], the IC50 amounted to 150 nM.

Compound `O=C(Nc1cc2ccccc2nc1C(=O)N[C@H](C(=O)O)C1CCCCC1)Nc1c(Cl)cc(Cl)cc1Cl` [Example 299, (2S)-Cyclohexyl({[3-({[(2,4,6-trichlorophenyl)amino]carbonyl}amino)-2-quinolinyl]carbonyl}amino)ethanoic acid] gave an IC50 of 480 nM.

The compound `Cc1cc(C)c(NC(=O)Nc2cc3ccccc3nc2C(=O)N[C@H](C(=O)O)C2CCCCC2)c(C)c1` [Example 300, (2S)-Cyclohexyl({[3-({[(2,4,6-trimethylphenyl)amino]carbonyl}amino)-2-quinolinyl]carbonyl}amino)ethanoic acid] showed an IC50 of 27 nM.

`O=C(Nc1cc2ccccc2cc1C(=O)NC1(C(=O)O)CCCCCC1)Nc1c(Cl)cc(Cl)cc1Cl` [Example 301, 1-({[3-({[(2,4,6-Trichlorophenyl)amino]carbonyl}amino)-2-naphthalenyl]carbonyl}amino)cycloheptanecarboxylic acid]: the IC50 amounted to 350 nM.

`O=C(Nc1cc2ccccc2cc1C(=O)NC1(C(=O)O)CCCCCCC1)Nc1c(Cl)cc(Cl)cc1Cl` [Example 303, 1-({[3-({[(2,4,6-trichlorophenyl)amino]carbonyl}amino)-2-naphthalenyl]carbonyl}amino)cyclooctanecarboxylic acid] had an IC50 of 57 nM.

With `Cc1cc(C)c(NC(=O)Nc2cc3ccccc3nc2C(=O)NC2(C(=O)O)CCCCCC2)c(C)c1` [Example 306, 1-({[3-({[(2,4,6-trimethylphenyl)amino]carbonyl}amino)-2-quinolinyl]carbonyl}amino)cycloheptanecarboxylic acid], the IC50 turned out to be 11 nM.

Take `Cc1cc(C)c(NC(=O)Nc2cc3ccccc3nc2C(=O)NC2(C(=O)O)CCCCCCC2)c(C)c1` [Example 307, 1-({[3-({[(2,4,6-trimethylphenyl)amino]carbonyl}amino)-2-quinolinyl]carbonyl}amino)cyclooctanecarboxylic acid]: the IC50 came out at 2 nM.

Compound `Cc1cc(Br)cc(C)c1NC(=O)Nc1cc2ccccc2cc1C(=O)NC1(C(=O)O)CCCCCC1` [Example 308, 1-({[3-({[(4-bromo-2,6-dimethylphenyl)amino]carbonyl}amino)-2-naphthalenyl]carbonyl}amino)cycloheptanecarboxylic acid] displayed an IC50 of 250 nM.

`CCCc1cc(C)c(NC(=O)Nc2cc3ccccc3cc2C(=O)NC2(C(=O)O)CCCCCC2)c(C)c1` [Example 309, 1-({[3-({[(2,6-dimethyl-4-propylphenyl)amino]carbonyl}amino)-2-naphthalenyl]carbonyl}amino)cycloheptanecarboxylic acid]: the IC50 stood at 11 nM.

For `Cc1cc(C)c(NC(=O)Nc2cc3ccccc3nc2C(=O)N[C@](C)(C(=O)O)C2CCCCC2)c(C)c1` [Example 312, 2-Cyclohexyl-N-{[3-({[(2,4,6-trimethylphenyl)amino]carbonyl}amino)-2-quinolinyl]carbonyl}-D-alanine], the IC50 amounted to 230 nM.

In the case of `CCCC[C@H](NC(=O)c1nc2ccccc2cc1NC(=O)Nc1c(C)cc(C)cc1C)C(=O)O` [Example 313, N-{[3-({[(2,4,6-trimethylphenyl)amino]carbonyl}amino)-2-quinolinyl]carbonyl}-L-norleucine], the midpoint of inhibition, the IC50, lay at 160 nM.

Turning to `CCCC[C@H](NC(=O)c1nc2ccccc2cc1NC(=O)Nc1c(Cl)cccc1Cl)C(=O)O` [Example 314, N-{[3-({[(2,6-dichlorophenyl)amino]carbonyl}amino)-2-quinolinyl]carbonyl}-L-norleucine], 1800 nM corresponded to half-maximal inhibition (IC50).

On to `CCCC(CCC)(NC(=O)c1cc2ccccc2cc1NC(=O)Nc1c(Cl)cccc1Cl)C(=O)O` [Example 316, N-{[3-({[(2,6-dichlorophenyl)amino]carbonyl}amino)-2-naphthalenyl]carbonyl}-2-propylnorvaline], for which the IC50 amounted to 360 nM.

`Cc1cc(C)c(NC(=O)Nc2cc(Cl)cnc2C(=O)N[C@H](C(=O)O)C2CCCCC2)c(C)c1` [Example 317, (2S)-({[5-chloro-3-({[(2,4,6-trimethylphenyl)amino]carbonyl}amino)-2-pyridinyl]carbonyl}amino)(cyclohexyl)ethanoic acid]: the half-maximal inhibitory concentration (IC50) came to 920 nM.

As for `Cc1cc(C)c(NC(=O)Nc2cc(Cl)cnc2C(=O)NC2(C(=O)O)CCCCCC2)c(C)c1` [Example 319, 1-({[5-chloro-3-({[(2,4,6-trimethylphenyl)amino]carbonyl}amino)-2-pyridinyl]carbonyl}amino)cycloheptanecarboxylic acid], it took 470 nM to reach half-maximal inhibition (IC50).

On to `CCCc1cc(C)c(NC(=O)Nc2cc(Cl)cnc2C(=O)NC2(C(=O)O)CCCCCCC2)c(C)c1` [Example 320, 1-({[5-Chloro-3-({[(2,6-dimethyl-4-propylphenyl)amino]carbonyl}amino)-2-pyridinyl]carbonyl}amino)cyclooctanecarboxylic acid], for which the IC50 came out at 38 nM.

Take `Cc1cc(C)c(NC(=O)Nc2cc(-c3ccccc3)cnc2C(=O)N[C@H](C(=O)O)C2CCCCC2)c(C)c1` [Example 321, (2S)-Cyclohexyl({[5-phenyl-3-({[(2,4,6-trimethylphenyl)amino]carbonyl}amino)-2-pyridinyl]carbonyl}amino)ethanoic acid]: the IC50 was 150 nM.

On to `COc1ccc(-c2cnc(C(=O)N[C@H](C(=O)O)C3CCCCC3)c(NC(=O)Nc3c(C)cc(C)cc3C)c2)cc1` [Example 322, (2S)-Cyclohexyl({[5-[4-(methyloxy)phenyl]-3-({[(2,4,6-trimethylphenyl)amino]carbonyl}amino)-2-pyridinyl]carbonyl}amino)ethanoic acid], for which 83 nM corresponded to half-maximal inhibition (IC50).

Regarding `COc1ccc(-c2cnc(C(=O)N[C@H](C(=O)O)[C@@H](C)OC(C)(C)C)c(NC(=O)Nc3c(C)cc(C)cc3C)c2)cc1` [Example 323, O-(1,1-dimethylethyl)-N-{[5-[4-(methyloxy)phenyl]-3-({[(2,4,6-trimethylphenyl)amino]carbonyl}amino)-2-pyridinyl]carbonyl}-L-threonine], the IC50 is 170 nM.

As for `Cc1cc(C)c(NC(=O)Nc2cc(-c3ccc(F)c(F)c3)cnc2C(=O)N[C@H](C(=O)O)[C@@H](C)OC(C)(C)C)c(C)c1` [Example 324, N-{[5-(3,4-Difluorophenyl)-3-({[(2,4,6-trimethylphenyl)amino]carbonyl}amino)-2-pyridinyl]carbonyl}-O-(1,1-dimethylethyl)-L-threonine], the IC50 amounted to 470 nM.

`COc1ccc(-c2cnc(C(=O)NC3(C(=O)O)CCCCCC3)c(NC(=O)Nc3c(C)cc(C)cc3C)c2)cc1` [Example 325, 1-({[5-[4-(methyloxy)phenyl]-3-({[(2,4,6-trimethylphenyl)amino]carbonyl}amino)-2-pyridinyl]carbonyl}amino)cycloheptanecarboxylic acid] registered an IC50 of 31 nM.

Consider `O=C(Nc1c(Cl)cc(Cl)cc1Cl)Nc1c(C(=O)N[C@H](C(=O)O)C2CCCCC2)oc2cc(Br)ccc12` [Example 326, (2S)-({[6-Bromo-3-({[(2,4,6-trichlorophenyl)amino]carbonyl}amino)-1-benzofuran-2-yl]carbonyl}amino)(cyclohexyl)ethanoic acid], for which the 50% inhibitory concentration (IC50) is 7390 nM.

These data come from patent publication US20070249670A1, “Glycogen Phosphorylase Inhibitor Compounds and Pharmaceutical Compositions Thereof” (SMITHKLINE BEECHAM CORPORATION, priority 2004, published 2007).
